Where two headings read alike, the source gives them in different places.
Experiments:
[1] = system: human platelet rich plasma, ADP-induced aggregation; experiment: inhibition of platelet aggregation in human platelet rich plasma, induced by ADP; type: cell-based; conditions: human PRP, read-out: percentage inhibition, ADP; for inhibition at 30 µg/mL: 30 μg/ml; for inhibition at 100 µg/mL: 100 μg/ml; for inhibition at 10 µg/mL: 10 μg/ml
Method: (§1) In this test, 9 vol. of blood is sampled from the carotid artery of rabbits (2 to 2.5 Kg) and placed in a silicon-coated flask containing 1 vol. of 3.8% sodium citrate. The thus obtained blood is centrifuged at 1,000 rpm for 15 minutes to obtain platelet rich plasma (referred to as "PRP" hereinafter). The aggregation of blood platelets is observed using an aggregometer (made by Bryston Co.) and the degree of aggregation after the addition of aggregation promoting substances is measured by nephelometry, i.e., through increase in light transmission.
(§2) The PRP (0.9 ml) is placed in a silicon-coated cuvett of the aggregometer. Then, 0.05 ml of physiological saline solution containing various concentrations of test reagents or control reagents is added and the mixture is allowed to stand for one minute. Compounds promoting aggregation are then added and the absorbancy of the solution is measured and the percent inhibition of aggregation is calculated according to the following equation: [formula] C: Transmittancy showing the maximum percent aggregation by physiological saline solution
(§3) D: Transmittancy showing the maximum percent aggregation by sample
(§4) In this example, the same procedures are repeated as in Example 10 except that human platelet rich plasma is used in place of rabbit platelet rich plasma.

[2] = system: rabbit blood platelets (platelet rich plasma), collagen-induced aggregation; experiment: inhibition of platelet aggregation in rabbit platelet rich plasma (in vitro), induced by collagen; type: cell-based; conditions: Oryctolagus cuniculus, Platelet, read-out: percentage of inhibition, collagen; for inhibition at 1 µg/mL: 1 μg/ml; for inhibition at 3 µg/mL: 3 μg/ml; for inhibition at 10 µg/mL: 10 μg/ml
Method: (§5) In this example, the inhibition of platelet aggregation in rabbit platelet rich plasma (in vitro) is tested.
as §1, §2, §3
(§6) Test for the inhibition of platelet aggregation induced by ADP, collagen and thrombin.

[3] = acute toxicity, Behrens-Karber's method; type: in vivo; conditions: in vivo; mouse, oral
Method: In this example, the acute toxicity of compounds of the invention is determined by Behrens-Karber's method using, 5 male dd-strain for each group weighing 20±1 g. A 0.3% CMC suspension of the test compound (concentration of the test compound: 100 mg/ml) is then orally administered to each mouse.

[4] = system: human platelet rich plasma, collagen-induced aggregation; experiment: inhibition of platelet aggregation in human platelet rich plasma, induced by collagen; type: cell-based; conditions: human PRP, read-out: percentage inhibition, collagen; for inhibition at 30 µg/mL: 30 μg/ml; for inhibition at 100 µg/mL: 100 μg/ml; for inhibition at 10 µg/mL: 10 μg/ml
Method: as §1, §2, §3, §4

[5] = system: rabbit blood platelets (platelet rich plasma), ADP-induced aggregation; experiment: inhibition of platelet aggregation in rabbit platelet rich plasma (in vitro), induced by ADP; type: cell-based; conditions: Oryctolagus cuniculus, Platelet, read-out: percentage of inhibition, ADP; for inhibition at 3 µg/mL: 3 μg/ml; for inhibition at 10 µg/mL: 10 μg/ml
Method: as §5, §1, §2, §3, §6

[6] = system: mice, death by ADP injection; experiment: prevention of death of mice by ADP addition (in vivo), oral administration
Method: In this example, prevention of death of mice by ADP addition (in vivo) is tested. It is shown that intravenous administration of a great amount of ADP to mice causes aggregated blood platelets to be captured in the pulmonary capillaries so that the mice die of respiratory distress.
The test is carried out according to Roba's method. [Eur. J. Pharmacol. 37, 265-274 (1976)]. Specifically, CMC solution (0.3%) and CMC suspension containing the test compound and control compounds are orally administered to mice in a ratio of 0.1 ml/10 g (body weight). After one hour, an aqueous solution of ADP (60 mg/ml) is injected into the tail vein in a volume of 0.1 ml/10 g (body weight) every 10 seconds and the mortality is calculated.

[7] = rabbit PRP, ADP 10^-5 M, 30 μg/ml
[8] = rabbit PRP, ADP 10^-5 M, 100 μg/ml
[9] = oral, 100 mg/Kg, ADP i.v. after one hour

| Compound | inhibition at 30 µg/mL [1] [%] | inhibition at 100 µg/mL [1] [%] | inhibition at 30 µg/mL ([2]; rabbit PRP, 30 μg/ml) [%] | inhibition at 100 µg/mL ([2]; rabbit PRP, 100 μg/ml) [%] | LD50 [3] [mg/kg] | inhibition at 30 µg/mL [4] [%] | inhibition at 100 µg/mL [4] [%] | inhibition at 30 µg/mL [5, 7] [%] | inhibition at 100 µg/mL [5, 8] [%] | inhibition at 3 µg/mL ([2]; rabbit PRP) [%] | inhibition at 10 µg/mL ([2]; rabbit PRP) [%] | inhibition at 10 µg/mL ([5]; rabbit PRP, ADP 10^-5 M) [%] | other results |
| --- | --- | --- | --- | --- | --- | --- | --- | --- | --- | --- | --- | --- | --- |
| CCCCCCCCCCCC(=O)OCCNC(=O)c1ccccc1SSc1ccccc1C(=O)NCCOC(=O)CCCCCCCCCCC [Compound XIX, 2,2'-dithiobis(N-2-dodecanoyloxyethylbenzamide)] | 5 | 35 | 54 | 100 | ≥ 1000 | 16 | 46 | 12 | 72 | – | – | – | – |
| O=C(c1ccccc1SSc1ccccc1C(=O)N1CCN(CC=Cc2ccccc2)CC1)N1CCN(CC=Cc2ccccc2)CC1 [Compound XXX, 2,2'-dithiobis[N'-(3-phenyl-propene-1-yl)benzpiperazide]] | – | – | 40 | – | ≥ 1000 | – | – | 17 | – | – | – | – | – |
| O=C(NC1CCCCC1)c1ccccc1SSc1ccccc1C(=O)NC1CCCCC1 [Compound XXVI, 2,2'-dithiobis(N-cyclohexylbenzamide)] | – | – | 25 | – | ≥ 1000 | – | – | 30 | – | – | – | – | – |
| CCCCNC(=O)c1ccccc1SSc1ccccc1C(=O)NCCCC [Compound I, 2,2'-dithiobis(N-n-butylbenzamide)] | – | – | 16.5 | 100 | ≥ 300 | – | – | 13.4 | 46.6 | – | – | – | – |
| O=C(NCCO)c1cc(Cl)ccc1SSc1ccc(Cl)cc1C(=O)NCCO [Compound XXXI, 2,2'-dithiobis(5-chloro-N-2-hydroxyethyl)benzamide] | 50 | 88 | 100 | 100 | ≥ 1000 | 60 | 100 | 80 | 100 | 100 | 100 | 43 | inhibition at 10 µg/mL [1]: 10%; inhibition at 1 µg/mL ([2]; rabbit PRP): 26%; inhibition at 10 µg/mL [4]: 12%; inhibition at 3 µg/mL ([5]; rabbit PRP, ADP 10^-5 M): 0% |
| O=C(Nc1ccccc1[N+](=O)[O-])c1ccccc1SSc1ccccc1C(=O)Nc1ccccc1[N+](=O)[O-] [Compound XII, 2,2'-dithiobis(N-o-nitrophenylbenzamide)] | – | – | – | – | ≥ 1000 | – | – | – | – | – | – | – | inhibition at 30 µg/mL [2]: 45%; inhibition at 100 µg/mL [2]: 90%; inhibition at 30 µg/mL [5]: 20%; inhibition at 100 µg/mL [5]: 50% |
| COc1ccc(Cc2nccc3cc(OC)c(OC)cc23)cc1OC [papaverine, reference compound] | – | – | – | – | – | – | – | – | – | – | – | – | inhibition at 30 µg/mL [2]: 34%; inhibition at 100 µg/mL [2]: 100%; effect in reducing mortality (ADP) ([6]; in words, oral or intravenous administration, Table 3): ineffective; Mortality [6, 9]: 60%; Score (mortality) [6, 9]: 6/10; inhibition at 30 µg/mL [5]: 14%; inhibition at 100 µg/mL [5]: 99% |
| O=C(c1ccccc1SSc1ccccc1C(=O)N1CCOCC1)N1CCOCC1 [Compound XXVII, 2,2'-dithiobis(benzmorpholide)] | 5 | 45 | 100 | – | ≥ 1000 | 35 | 100 | 100 | – | 59 | 100 | 60 | inhibition at 1 µg/mL ([2]; rabbit PRP): 40%; inhibition at 10 µg/mL [4]: 0%; inhibition at 3 µg/mL ([5]; rabbit PRP, ADP 10^-5 M): 40% |
| O=C(c1ccccc1SSc1ccccc1C(=O)N1CCN(c2ccccc2)CC1)N1CCN(c2ccccc2)CC1 [Compound XXVIII, 2,2'-dithiobis(N'-phenylbenzpiperazide)] | – | – | 99 | – | ≥ 1000 | – | – | 55 | – | 14 | 55 | 19 | – |
| O=C(NC(CO)(CO)CO)c1ccccc1SSc1ccccc1C(=O)NC(CO)(CO)CO [Compound XLI, 2,2'-dithiobis[N-2-hydroxy-1,1-di-(1'-hydroxymethyl)-ethylbenzamide]] | – | – | 7 | 96 | ≥ 1000 | – | – | 22 | 71 | – | – | – | – |
| O=C(NCCNCCO)c1ccccc1SSc1ccccc1C(=O)NCCNCCO [Compound XXV, 2,2'-dithiobis[N-2-(2-hydroxyethylamino)-ethylbenzamide]] | – | 10 | 42 | – | ≥ 1000 | 4 | 25 | 10 | – | – | – | – | – |
| O=C(NCCCN1CCOCC1)c1ccccc1SSc1ccccc1C(=O)NCCCN1CCOCC1 [Compound XL, 2,2'-dithiobis(N-3-morpholinopropylbenzamide)] | 85 | 100 | 100 | 100 | ≥ 1000 | 100 | 100 | 100 | – | 21 | 98 | 69 | inhibition at 10 µg/mL [1]: 65%; inhibition at 10 µg/mL [4]: 40%; inhibition at 3 µg/mL ([5]; rabbit PRP, ADP 10^-5 M): 26% |
| CCOC(CN1CCN(C(=O)c2ccccc2SSc2ccccc2C(=O)N2CCN(CC(OCC)c3ccccc3)CC2)CC1)c1ccccc1 (stereo not drawn) [Compound XXIX, 2,2'-dithiobis[N'-(2-phenyl-2-ethyloxyethyl)benzpiperazide]] | – | – | 100 | – | ≥ 1000 | – | – | 43 | – | 0 | 55 | 32 | – |
| COCCNC(=O)c1ccccc1SSc1ccccc1C(=O)NCCOC [Compound XVIII, 2,2'-dithiobis(N-2-methyloxyethylbenzamide)] | 20 | 65 | 100 | 100 | ≥ 1000 | 45 | 100 | – | 75 | – | 40 | – | inhibition at 10 µg/mL [4]: 10% |
